From US20190054054A1, “Methods reducing or preventing oxidation of high density lipoprotein (HDL)” (Amarin Pharmaceuticals Ireland Limited, priority 2017, published 2019) come the findings set out here.

This assay has as its system human HDL. Nature of the assay: Copper-induced oxidation of human HDL, TBARS/MDA (Example 14). The format is biochemical. The procedure: LDL and sdLDL subfractions (0.6 mL each) were incubated with either 10 μL vehicle (ethanol) or 10 μL drug stock solution for 30 min to 1 hr at 37° C. Oxidation was initiated by the addition of 10 μM CuSO4. After 2 hr, 100 μL aliquots were removed from each subfraction and combined with 1.0 mL thiobarbituric acid (0.5%), 10 μL trichloroacetic acid (5%), 10 μL BHT (5 mg/mL in methanol), and 10 μL EDTA (5 mM). Sample aliquots were incubated at 100° C. for 20 min and then assayed for the formation of thiobarbituric acid-reactive substances (TBARS), which have a molar absorptivity (c) value of 1.56×10^5 M^−1 cm^−1 at 532 nm and are derived principally from the reaction of thiobarbituric acid with malondialdehyde (MDA), a reactive aldehyde produced by LDL oxidation. Sample TBARS concentrations were determined spectrophotometrically by measuring sample absorbances against a standard curve derived from the hydrolysis of 1,1,3,3-tetramethoxypropane.
A study was performed to test whether EPA, DHA or EPA/DHA have antioxidant effects on high density lipoprotein. HDL was isolated from human plasma by iodixanol gradient ultracentrifugation and adjusted to a final apolipoprotein (apoA1) concentration of 10 mg/mL. Isolated HDL was separated into test samples of 200 μg/mL […] (based on ApoA1), and incubated at 37° C. in the absence (vehicle) or presence of EPA and/or DHA; 5.0 or […] each. Samples were then subjected to copper-induced oxidation (10 μM CuSO4) and, at different time points up to 14 hours, aliquots were removed from each sample and formation of TBARS was determined as explained above in Example 6.

Setting [1] is: 5 μM (combination: 5 μM each), 6 h.

For the compound `CC/C=C\C/C=C\C/C=C\C/C=C\C/C=C\CCCC(=O)O` [EPA, cis-5,8,11,14,17-eicosapentaenoic acid], the MDA formation came out at 1.03 ± 0.10 µM under setting [1]; 0.384 ± 0.097 µM (10 μM, 1.0 hr, 10 μM CuSO4); 0.622 ± 0.066 µM (10 μM, 4 h); 2.01 ± 0.10 µM (10 μM, 14 h). Besides, the “inhibition of HDL oxidation (antioxidant activity)” value under setting [1] was 81%. Moreover, the “inhibition of HDL oxidation” value reads like this: (10 μM, 1.0 hr, 10 μM CuSO4) 92%; (10 μM, 4 h) 89%. For the same compound, where the note is “10 μM, 14 h”, the “inhibition of HDL oxidation vs. vehicle” value was determined as 64%.
